Experimental data from US3931262A, “Hydrophilic and difficultly volatile biocidal triorganotin compounds” (priority 1972, dated 1976).

Columns and labels:
[1] = test system: Salmonella cholerae-suis VBIB; assay type: cell-based
[2] = test system: Fusarium spec. DAP; assay: Microbiological test; assay type: cell-based
Description: (§1) In the test for microbiocidal activity the compounds listed hereinbelow yielded the values indicated in the following Table: No. Compound __________________________________________________________________________ 1 (n--C4 H9)3 Sn--S--CH2 --CH2 --COO.(CH 2 --CH2 --O--n H(n~9) 2 (C6 H5)3 Sn--S--(CH2)3 --SO3.Na CH3 .vertline. 3 --Sn--S--CH2 --CH2 --COO--(CH2 --CH2 --O)n.H(n ~9) .vertline. CH3 4 (n--C4 H9)3 Sn--S--CH2 --COO.H.N(CH2 CH2 OH)3 5 (n--C4 H9)3 Sn--S--(CH2)2 --COO.H.N(CH2 CH2 OH)3 6 (n--C4 H9)3 Sn--S--CH2 --CO.N(CH2 CH2 OH)2 __________________________________________________________________________

[3] = test system: Escherichia coli RP 45410; assay: Microbiological test; assay type: cell-based
Description: as §1

[4] = test system: Mycobacterium phlei CITM 61; assay: Microbiological test; assay type: cell-based
Description: as §1

[5] = test system: Pasteurella multocida K753; assay: Microbiological test; assay type: cell-based
Description: as §1

[6] = test system: Hefe DAP; assay: Microbiological test; assay type: cell-based
Description: as §1

[7] = test system: Aspergillus flavus CBS 12662; assay: Microbiological test; assay type: cell-based
Description: as §1

[8] = test system: Chaetomium globosum CBS 14851; assay: Microbiological test; assay type: cell-based
Description: as §1

[9] = test system: Paecilomyces varioti CBS; assay: Microbiological test; assay type: cell-based
Description: as §1

[10] = test system: Alternaria tenuis CBS 10426; assay: Microbiological test; assay type: cell-based
Description: as §1

[11] = test system: Trichophyton gypseum CBS; assay: Microbiological test; assay type: cell-based
Description: as §1

[12] = test system: Penicillium funiculosum CEB 329631; assay: Microbiological test; assay type: cell-based
Description: as §1

[13] = test system: Penicillium expansum SMC 36; assay: Microbiological test; assay type: cell-based
Description: as §1

[14] = test system: Lenzites abietina CBS; assay: Microbiological test; assay type: cell-based
Description: as §1

[15] = test system: Staphylococcus aureus SG 511 M6; assay: Microbiological test; assay type: cell-based
Description: as §1

[16] = test system: Polystictus versicolor EMPA61; assay: Microbiological test; assay type: cell-based
Description: as §1

[17] = test system: Corynebacterium diphteroides FUR; assay: Microbiological test; assay type: cell-based
Description: as §1

[18] = test system: Salmonella gallinarum VBIB; assay: Microbiological test; assay type: cell-based
Description: as §1

[19] = test system: Fusarium oxysporum CBS; assay: Microbiological test; assay type: cell-based
Description: as §1

[20] = test system: Streptococcus faecalis NCTC 8619; assay: Microbiological test; assay type: cell-based
Description: as §1

[21] = test system: Arizona paracolon 7:1.7,8; assay: Microbiological test; assay type: cell-based
Description: as §1

[22] = test system: Pilz schwarzlich DAP; assay: Microbiological test; assay type: cell-based
Description: as §1

[23] = test system: Salmonella pullorum VBIZ; assay: Microbiological test; assay type: cell-based
Description: as §1

[24] = test system: Poria vaporia CBS; assay: Microbiological test; assay type: cell-based
Description: as §1

[25] = test system: Stachybotrys atra CBS 32465; assay: Microbiological test; assay type: cell-based
Description: as §1

[26] = test system: Hefe rot DAP; assay: Microbiological test; assay type: cell-based
Description: as §1

[27] = test system: Streptococcus agalactiae M100; assay: Microbiological test; assay type: cell-based
Description: as §1

[28] = test system: Sarcina ureae SMB 81; assay: Microbiological test; assay type: cell-based
Description: as §1

[29] = test system: Coniphora cerebella CBS; assay: Microbiological test; assay type: cell-based
Description: as §1

[30] = test system: Pseudomonas fluorescens NCTC 4755; assay: Microbiological test; assay type: cell-based
Description: as §1

[31] = test system: Pullularia pullulans CBS 10767; assay: Microbiological test; assay type: cell-based
Description: as §1

[32] = test system: Aspergillus niger ATCC 6275; assay: Microbiological test; assay type: cell-based
Description: as §1

[33] = test system: Staphylococcus aureus SG 511; assay: Microbiological test; assay type: cell-based
Description: as §1

[34] = test system: Escherichia coli NCTC 8195; assay: Microbiological test; assay type: cell-based
Description: as §1

[35] = test system: Candida albicans CBS; assay: Microbiological test; assay type: cell-based
Description: as §1

[36] = test system: Trichoderma viride CEB 3334.2; assay: Microbiological test; assay type: cell-based
Description: as §1

[37] = test system: Bacillus subtilis NCTC 6460; assay: Microbiological test; assay type: cell-based
Description: as §1

[38] = in water / neutral medium / strongly acid or alkaline pH

What does the source list for `O=S(=O)([O-])CCC[S][Sn]([c]1ccccc1)([c]1ccccc1)[c]1ccccc1.[Na+]` [Compound 2, sodium S-triphenyl tin-γ-mercaptopropanesulphonate]?
Activity range [1]: > 300 ppm; Activity range [2]: 30 ppm; Activity range [3]: 10 ppm; Activity range [4]: 3 ppm; Activity range [5]: > 300 ppm; Activity range [6]: 10 ppm; Activity range [7]: 30 ppm; Activity range [8]: 10 ppm; Activity range [9]: 10 ppm; Activity range [10]: 10 ppm; Activity range [11]: 30 ppm; Activity range [12]: 100 ppm; Activity range [13]: 30 ppm; Activity range [14]: 100 ppm; Activity range [15]: 10 ppm; Activity range [16]: 30 ppm; Activity range [17]: 3 ppm; Activity range [18]: > 300 ppm; Activity range [19]: 10 ppm; Activity range [20]: 10 ppm; Activity range [21]: > 300 ppm; Activity range [22]: 30 ppm; Activity range [23]: > 300 ppm; Activity range [24]: 3 ppm; Activity range [25]: 10 ppm; Activity range [26]: 10 ppm; Activity range [27]: 3 ppm; Activity range [28]: 3 ppm; Activity range [29]: 30 ppm; Activity range [30]: > 300 ppm; Activity range [31]: 3 ppm; Activity range [32]: 30 ppm; Activity range [33]: 3 ppm; Activity range [34]: 30 ppm; Activity range [35]: 30 ppm; Activity range [36]: 10 ppm; Activity range [37]: 3 ppm

Which “stability to hydrolysis (in words)” value [38] does the source give for `CCC[CH2][Sn]([CH2]CCC)([CH2]CCC)[O]S(N)(=O)=O` [tributyltin sulphaminate] here?
Its value is “hydrolytically split off in water at once”.
